Assay results: US7164023B2, “Benzoquinolizine-2-carboxylic acid arginine salt tetrahydrate” (priority 2003, dated 2007)
Counter-ions that a name gives are not always drawn.

Legend:
[1] = Conversion of monohydrate to tetrahydrate under ambient conditions, by XRPD; type: physicochemical; conditions: ambient temperature (35° C.) and relative humidity (60%)
Description: X-ray diffraction analyses (40 kv x 40 mA Rigaku D/max 2200) were performed under the conditions listed below: • Scan speed 5°/min or 20°/min • Sampling time 7 min or 2 min • Scan mode: continuous • 2θ/θ reflection • Cu target (Ni filter)

[2] = Temperature/relative humidity-related stability (validated HPLC assay, XRPD); type: physicochemical
Text: 3 Sample batches of the compound were stored under the conditions of the study as stated in the table below. The assay was done by a validated HPLC method.

[3] = tested on: broad spectrum of microorganisms including antibiotic-resistant strains of Staphylococcus aureus, more particularly glycopeptide-resistant staphylococci; conditions: incl. antibiotic-resistant S. aureus; cited from earlier work
[4] = in vivo; cited from earlier work

In the case of `C[C@H]1CCc2c(N3CCC(O)CC3)c(F)cc3c(=O)c(C(=O)O)cn1c23.N=C(N)NCCC[C@H](N)C(=O)O` [monohydrate, S-(−)-9-fluoro-6,7-dihydro-8-(4-hydroxypiperidin-1-yl)-5-methyl-1-oxo-1H,5H-benzo[i,j]quinolizine-2-carboxylic acid L-arginine salt], the “Physical stability / moisture absorption” value [1] was “highly unstable and rapidly absorbs moisture” and the “Time until XRPD spectra change towards tetrahydrate” value [1] was no more than 20 min.

In the case of `C[C@H]1CCc2c(N3CCC(O)CC3)c(F)cc3c(=O)c(C(=O)O)cn1c23` [S-(−)-9-fluoro-6,7-dihydro-8-(4-hydroxypiperidin-1-yl)-5-methyl-1-oxo-1H,5H-benzo[i,j]quinolizine-2-carboxylic acid L-arginine salt tetrahydrate], the “HPLC assay on storage” value ([2]; 25° C./60% relative humidity, 3 months) was 99.22%, the “HPLC assay on storage” value ([2]; 25° C./60% relative humidity, Initial) was 99.31% and the “HPLC assay on storage” value ([2]; 40° C./75% relative humidity, 1 month) was 99.30%. The “HPLC assay on storage” value ([2]; 40° C./75% relative humidity, 2 months) was 99.25%, the “HPLC assay on storage” value ([2]; 40° C./75% relative humidity, 3 months) was 99.27% and the “HPLC assay on storage” value ([2]; 40° C./75% relative humidity, Initial) was 99.31%. For the same compound, the “Crystallinity on storage as seen by XRPD spectra” value ([2]; storage conditions of the stability study) was “underwent no changes”.

For `C[C@H]1CCc2c(N3CCC(O)CC3)c(F)cc3c(=O)c(C(=O)O)cn1c23.N=C(N)NCCC[C@H](N)C(=O)O` [S-(−)-9-fluoro-6,7-dihydro-8-(4-hydroxypiperidin-1-yl)-5-methyl-1-oxo-1H,5H-benzo[i,j]quinolizine-2-carboxylic acid L-arginine salt], the “Efficacy against microorganisms in mammals” value [3] is given as “effective against a broad spectrum of microorganisms” and the Overall tolerability [4] is given as “excellent overall tolerability”.
